Consider 17 compounds from paper PMC3901432 (Bioorganic & medicinal chemistry letters, 2013).

In one data set the target is human mGlu1 (Homo sapiens, UniProt Q13255). The experiment in a line: Calcium mobilization mGlu1 assay. In kind it is cell-based. Particulars: for mGlu1 antagonism (in words): up to the top concentration of 30 μM; for LLE: ligand-lipophilicity efficiency = pIC50−cLogP. On the technique in general: Calcium flux is commonly read through the fluorescence of an indicator in the cells.

A further data set deals with mGlu8 (Homo sapiens, UniProt O00222). Briefly: mGlu selectivity cell based functional assay. The settings on record: tested at 10 μM.
A further data set addresses mGlu4 (Homo sapiens, UniProt Q14833). The experiment in a line: mGlu selectivity cell based functional assay. Particulars: tested at 10 μM.
The target in the next data set is mGlu7 (Homo sapiens, UniProt Q14831). The experiment in a line: mGlu selectivity cell based functional assay. The settings on record: tested at 10 μM.
The next data set deals with mGlu6 (Homo sapiens, UniProt O15303). The experiment in a line: mGlu selectivity cell based functional assay. The settings on record: tested at 10 μM.
The target in a further data set is mGlu2 (Homo sapiens, UniProt Q14416). The experiment in a line: mGlu selectivity cell based functional assay. The settings on record: tested at 10 μM.
For the next data set, the target named is mGlu3 (Homo sapiens, UniProt Q14832). The experiment in a line: mGlu selectivity cell based functional assay. Particulars: tested at 10 μM.
For another data set, the target named is CYP3A4 (Homo sapiens, UniProt P08684). Briefly: Cytochrome P450 inhibition assay in pooled human liver microsomes. The class given is in vitro ADME. For orientation: Liver microsomes are a subcellular fraction often used to study metabolism.

Structures are written as SMILES.

Sequence of human mGlu1 (Q13255 19-1194): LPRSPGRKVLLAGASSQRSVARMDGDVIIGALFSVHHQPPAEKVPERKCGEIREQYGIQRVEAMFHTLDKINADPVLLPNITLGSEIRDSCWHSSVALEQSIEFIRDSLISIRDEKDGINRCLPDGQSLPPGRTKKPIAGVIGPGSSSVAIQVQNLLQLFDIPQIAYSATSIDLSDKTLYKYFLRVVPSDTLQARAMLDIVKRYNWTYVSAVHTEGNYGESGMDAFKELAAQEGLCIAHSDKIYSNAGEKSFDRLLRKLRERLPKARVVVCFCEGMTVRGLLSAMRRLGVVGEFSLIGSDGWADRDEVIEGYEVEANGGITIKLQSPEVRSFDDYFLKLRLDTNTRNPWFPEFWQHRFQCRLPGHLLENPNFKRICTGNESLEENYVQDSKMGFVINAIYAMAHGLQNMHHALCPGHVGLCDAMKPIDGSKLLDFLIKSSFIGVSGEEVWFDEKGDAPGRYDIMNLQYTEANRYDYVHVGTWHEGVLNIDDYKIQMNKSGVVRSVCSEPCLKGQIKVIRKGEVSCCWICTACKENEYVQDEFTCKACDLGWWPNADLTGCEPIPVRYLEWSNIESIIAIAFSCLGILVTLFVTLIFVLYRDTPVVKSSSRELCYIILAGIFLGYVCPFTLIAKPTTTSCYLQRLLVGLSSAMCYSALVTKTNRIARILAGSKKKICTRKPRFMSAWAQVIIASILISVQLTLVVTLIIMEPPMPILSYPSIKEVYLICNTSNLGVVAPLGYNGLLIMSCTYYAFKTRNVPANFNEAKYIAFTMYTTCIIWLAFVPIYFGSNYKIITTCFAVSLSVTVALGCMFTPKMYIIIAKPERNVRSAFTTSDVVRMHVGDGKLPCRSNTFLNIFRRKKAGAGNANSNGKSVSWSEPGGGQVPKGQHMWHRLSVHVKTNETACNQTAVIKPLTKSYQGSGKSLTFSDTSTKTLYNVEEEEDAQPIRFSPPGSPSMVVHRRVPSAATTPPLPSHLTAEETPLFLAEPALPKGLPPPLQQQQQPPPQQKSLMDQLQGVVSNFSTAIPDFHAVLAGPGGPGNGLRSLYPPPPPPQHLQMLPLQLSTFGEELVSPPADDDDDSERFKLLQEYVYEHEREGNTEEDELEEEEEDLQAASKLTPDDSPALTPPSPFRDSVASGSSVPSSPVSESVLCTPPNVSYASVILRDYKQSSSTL
Sequence of mGlu8 (O00222 34-908): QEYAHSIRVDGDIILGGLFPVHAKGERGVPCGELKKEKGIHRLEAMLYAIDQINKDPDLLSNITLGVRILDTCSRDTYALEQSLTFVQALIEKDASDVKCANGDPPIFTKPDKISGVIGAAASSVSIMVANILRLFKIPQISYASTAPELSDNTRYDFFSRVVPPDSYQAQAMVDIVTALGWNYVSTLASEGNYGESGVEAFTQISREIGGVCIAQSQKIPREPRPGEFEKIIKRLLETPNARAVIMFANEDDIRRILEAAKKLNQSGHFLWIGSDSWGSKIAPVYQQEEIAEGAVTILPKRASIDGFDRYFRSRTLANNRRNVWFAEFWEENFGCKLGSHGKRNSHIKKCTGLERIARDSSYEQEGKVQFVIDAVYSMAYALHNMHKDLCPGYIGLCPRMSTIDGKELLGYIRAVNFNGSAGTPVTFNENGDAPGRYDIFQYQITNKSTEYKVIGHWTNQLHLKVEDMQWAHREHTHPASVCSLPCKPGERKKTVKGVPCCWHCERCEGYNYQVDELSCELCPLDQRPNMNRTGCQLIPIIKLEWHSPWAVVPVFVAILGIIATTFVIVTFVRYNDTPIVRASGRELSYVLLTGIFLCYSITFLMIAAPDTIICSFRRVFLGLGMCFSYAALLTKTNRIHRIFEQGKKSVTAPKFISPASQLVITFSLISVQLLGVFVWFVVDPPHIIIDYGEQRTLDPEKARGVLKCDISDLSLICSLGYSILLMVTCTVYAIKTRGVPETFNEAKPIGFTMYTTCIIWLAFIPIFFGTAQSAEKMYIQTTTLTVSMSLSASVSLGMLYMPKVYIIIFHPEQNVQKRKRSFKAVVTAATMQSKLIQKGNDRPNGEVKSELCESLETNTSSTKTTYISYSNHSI
Sequence of mGlu6 (O15303 25-877): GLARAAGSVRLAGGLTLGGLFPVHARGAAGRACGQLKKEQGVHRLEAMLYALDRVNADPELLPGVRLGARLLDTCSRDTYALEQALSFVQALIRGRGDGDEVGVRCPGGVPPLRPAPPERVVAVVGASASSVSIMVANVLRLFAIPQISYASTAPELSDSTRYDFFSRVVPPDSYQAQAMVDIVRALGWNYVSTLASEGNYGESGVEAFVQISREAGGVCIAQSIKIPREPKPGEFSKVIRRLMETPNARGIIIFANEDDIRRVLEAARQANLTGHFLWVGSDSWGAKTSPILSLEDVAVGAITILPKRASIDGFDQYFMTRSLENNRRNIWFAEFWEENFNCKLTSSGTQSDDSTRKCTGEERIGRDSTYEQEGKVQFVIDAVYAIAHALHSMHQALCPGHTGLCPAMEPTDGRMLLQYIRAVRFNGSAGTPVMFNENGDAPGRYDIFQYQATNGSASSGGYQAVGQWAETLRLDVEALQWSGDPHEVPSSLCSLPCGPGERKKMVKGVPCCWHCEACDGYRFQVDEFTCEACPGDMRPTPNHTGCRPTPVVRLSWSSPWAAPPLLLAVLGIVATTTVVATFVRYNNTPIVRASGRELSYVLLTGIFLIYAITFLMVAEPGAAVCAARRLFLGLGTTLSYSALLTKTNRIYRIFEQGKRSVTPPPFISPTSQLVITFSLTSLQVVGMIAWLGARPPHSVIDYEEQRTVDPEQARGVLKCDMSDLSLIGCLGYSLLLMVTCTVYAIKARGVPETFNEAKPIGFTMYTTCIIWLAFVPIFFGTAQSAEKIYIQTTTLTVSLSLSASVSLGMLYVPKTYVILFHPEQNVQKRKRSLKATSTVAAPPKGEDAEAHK
Sequence of mGlu7 (Q14831 35-915): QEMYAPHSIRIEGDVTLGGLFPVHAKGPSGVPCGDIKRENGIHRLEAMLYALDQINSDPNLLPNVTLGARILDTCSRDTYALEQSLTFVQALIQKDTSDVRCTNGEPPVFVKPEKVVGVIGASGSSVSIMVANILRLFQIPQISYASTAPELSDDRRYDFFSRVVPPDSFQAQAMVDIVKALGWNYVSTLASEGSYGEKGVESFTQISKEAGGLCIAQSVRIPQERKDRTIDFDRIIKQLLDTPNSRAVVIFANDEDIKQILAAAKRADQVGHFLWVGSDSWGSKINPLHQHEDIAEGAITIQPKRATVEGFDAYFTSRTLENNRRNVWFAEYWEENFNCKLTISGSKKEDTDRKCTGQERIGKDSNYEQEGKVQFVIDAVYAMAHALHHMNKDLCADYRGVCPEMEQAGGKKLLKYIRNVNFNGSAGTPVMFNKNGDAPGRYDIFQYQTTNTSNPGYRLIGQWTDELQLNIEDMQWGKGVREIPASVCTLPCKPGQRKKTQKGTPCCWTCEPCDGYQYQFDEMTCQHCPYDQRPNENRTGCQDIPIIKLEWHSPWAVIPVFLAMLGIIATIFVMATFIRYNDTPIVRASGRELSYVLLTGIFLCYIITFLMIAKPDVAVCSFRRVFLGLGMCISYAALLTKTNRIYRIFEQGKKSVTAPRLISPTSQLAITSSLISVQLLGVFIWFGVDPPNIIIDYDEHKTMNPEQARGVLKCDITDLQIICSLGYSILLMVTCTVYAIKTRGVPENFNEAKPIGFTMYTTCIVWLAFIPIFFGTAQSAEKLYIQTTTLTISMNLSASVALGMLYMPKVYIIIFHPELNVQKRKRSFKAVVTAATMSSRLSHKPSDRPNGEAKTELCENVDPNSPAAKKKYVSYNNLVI
Sequence of CYP3A4 (P08684 whole entry): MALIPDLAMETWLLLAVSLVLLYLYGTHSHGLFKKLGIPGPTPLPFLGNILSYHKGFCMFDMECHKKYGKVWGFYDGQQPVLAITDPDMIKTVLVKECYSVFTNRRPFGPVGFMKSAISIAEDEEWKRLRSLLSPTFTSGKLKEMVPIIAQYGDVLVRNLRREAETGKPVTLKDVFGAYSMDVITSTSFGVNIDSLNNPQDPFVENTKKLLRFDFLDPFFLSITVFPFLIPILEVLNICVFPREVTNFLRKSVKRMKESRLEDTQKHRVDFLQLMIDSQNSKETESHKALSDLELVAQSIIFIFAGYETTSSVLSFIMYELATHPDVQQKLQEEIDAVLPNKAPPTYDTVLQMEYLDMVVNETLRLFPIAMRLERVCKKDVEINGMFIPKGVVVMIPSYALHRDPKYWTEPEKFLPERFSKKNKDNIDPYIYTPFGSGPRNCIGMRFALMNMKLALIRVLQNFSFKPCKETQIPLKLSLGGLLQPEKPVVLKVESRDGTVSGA

Take `O=C(N1C[C@@H]2CN(c3ncccc3F)C[C@@H]2C1)C12CC3CC(CC(C3)C1)C2` [Compound 29]: the “mGlu1 potency relative to 8 (fold less potent)” value on human mGlu1 is on record as 12 fold.
Take `CC(C)(C)C(=O)N1C[C@@H]2CN(c3ccccn3)C[C@@H]2C1` [Compound 9]: the “mGlu1 antagonism (in words)” value at human mGlu1 was “inactive”.
In the case of `O=C(N1C[C@@H]2CN(c3cccc(F)n3)C[C@@H]2C1)C12CC3CC(CC(C3)C1)C2` [Compound 27], at human mGlu1, the “mGlu1 potency relative to 8 (fold less potent)” value is given as “equipotent” and the LLE turned out to be 2.50.
`CC(C)(C)CC(=O)N1C[C@@H]2CN(c3ccccn3)C[C@@H]2C1` [Compound 16]: the “mGlu1 antagonism (in words)” value on human mGlu1 is “inactive”.
In the case of `O=C(N1C[C@@H]2CN(c3cnccn3)C[C@@H]2C1)C12CC3CC(CC(C3)C1)C2` [Compound 26], on human mGlu1, the “mGlu1 potency relative to 8 (fold less potent)” value is “eight fold” and the LLE came to 1.21.
Take `O=C(N1C[C@@H]2CN(c3ccncn3)C[C@@H]2C1)C12CC3CC(CC(C3)C1)C2` [Compound 25]: the “mGlu1 antagonism (in words)” value on human mGlu1 was “only weak antagonists”.
The same measure, in the same setting: as for `O=C(N1C[C@@H]2CN(c3ncccn3)C[C@@H]2C1)C12CC3CC(CC(C3)C1)C2` [Compound 24], the entry is “only weak antagonists”.
In the case of `O=C(N1C[C@@H]2CN(c3nccs3)C[C@@H]2C1)C12CC3CC(CC(C3)C1)C2` [Compound 23], the “mGlu1 antagonism (in words)” value at human mGlu1 is recorded as “only weak antagonists”.
In the case of `N#Cc1ccncc1N1C[C@H]2CN(C(=O)C34CC5CC(CC(C5)C3)C4)C[C@H]2C1` [Compound 32], the “mGlu1 antagonism (in words)” value on human mGlu1 was “moderate potency”.
As to `O=C(N1C[C@@H]2CN(c3ccccn3)C[C@@H]2C1)N1CCC2(CCCC2)C1` [Compound 38], the “activity at mGlu8” value on mGlu8 was “very weak and marginally significant activity”. Further, at mGlu4, the “activity at mGlu4” value was “no activity”. For the same compound, on mGlu7, the “activity at mGlu7” value is “no activity”. Also, on mGlu6, the “activity at mGlu6” value is “very weak and marginally significant activity”. Also, on human mGlu1, the “mGlu1 potency relative to 8 (fold less potent)” value is on record as “three fold” and the LLE stood at 4.12. The “activity at mGlu2” value on mGlu2 was “no activity”. Moreover, the “activity at mGlu3” value at mGlu3 was “no activity”.
Regarding `O=C(N1C[C@@H]2CN(c3ccc(F)cn3)C[C@@H]2C1)C12CC3CC(CC(C3)C1)C2` [Compound 28], on human mGlu1, the “mGlu1 potency relative to 8 (fold less potent)” value was “six fold” and the LLE turned out to be 1.88.
Take `CC1(C(=O)N2C[C@@H]3CN(c4ccccn4)C[C@@H]3C2)CCCCC1` [Compound 14]: at human mGlu1, the “mGlu1 potency relative to 8 (fold less potent)” value was “sixty”.
On to `O=C(N1CCC2(CCCCC2)CC1)N1C[C@@H]2CN(c3ccccn3)C[C@@H]2C1` [Compound 40], for which, at human mGlu1, the LLE is reported as 2.71.
On the same count and under the same terms, as for `N#Cc1ccccc1N1C[C@H]2CN(C(=O)C34CC5CC(CC(C5)C3)C4)C[C@H]2C1` [Compound 30], the figure is 2.18.
For `O=C(N1C[C@@H]2CN(c3ccccn3)C[C@@H]2C1)C12CC3CC(CC(C3)C1)C2` [Compound 8], the “activity at mGlu8” value on mGlu8 is “very weak and marginal activity”. In addition, the “activity at mGlu4” value at mGlu4 is on record as “no activity”. The “activity at mGlu7” value at mGlu7 was “very weak and marginal activity”. Further, the “activity at mGlu6” value on mGlu6 was “very weak and marginal activity”. On CYP3A4, the “CYP3A4 inhibition (in words)” value is on record as “moderate inhibitors”. Further, on human mGlu1, the “human mGlu1 potency relative to 1 (fold more potent)” value is on record as “greater than seven fold” and the LLE came out at 2.79. Further, at mGlu2, the “activity at mGlu2” value was “no activity”. In addition, the “activity at mGlu3” value at mGlu3 is “no activity”.
`N#Cc1ncccc1N1C[C@H]2CN(C(=O)C34CC5CC(CC(C5)C3)C4)C[C@H]2C1` [Compound 34]: at human mGlu1, the LLE was 2.87 and the “mGlu1 antagonism (in words)” value is recorded as “moderate potency”.
Take `C[C@@H]1CN(c2cccnc2C#N)CCN1C(=O)C12CC3CC(CC(C3)C1)C2` [VU0469650, reference compound]: the “CYP3A4 inhibition (in words)” value at CYP3A4 is given as “moderate inhibitors”.
